The values that follow come from publication PMC7558522, “Click-Free Synthesis of a Multivalent Tricyclic Peptide as a Molecular Transporter” (Pharmaceutics, 2020).

In brackets after ≈: the same amount, converted by molar mass. Like-named read-outs stand apart in the source and are kept apart here. *1 amine or outer side, *2 acyl side, *3 side chain or, on linkers, in order; H or OH if unused. Where a SMILES comes first, the peptide text is derived from it. Bridges are numbered along the chain shown (N, C = ends). Roman numbers before positions name the chains, in order. Suc = O=C(CCC(=O)[*:2])[*:1]

Data set [1] has as its system Pseudomonas aeruginosa (ATCC 27883). As to the kind of experiment: microbe, parasite or virus in culture. It is filed as cell-based. As to the method: (§1) The selected strains of bacteria, MRSA (Los Angeles County (LAC) clone), E. coli (ATCC 25922), Pseudomonas aeruginosa (ATCC 27883), and Klebsiella pneumoniae (ATCC BAA 1705) were cultured according to the guidelines of the Clinical Laboratory Standards Institute (CLSI) guidelines. MIC values were determined using microbroth dilution assay. Tricyclic peptide 20 was used to evaluate antibacterial activity in comparison to positive controls, such as Meropenem for Gram-negative bacteria and c[R4W4] for Gram-positive bacteria. Bacterial strains were inoculated into LB (5 mL) and shaken in an orbital shaker at 175 rpm overnight at 37 °C. The cultured suspension was immediately diluted to get turbidity of 0.5 McFarland (1.5 × 10^8 bacterial cell CFU/mL) using normal saline. The test compounds (tricyclic peptide 20, Meropenem, and c[R4W4]) were dissolved in 5% dimethyl sulfoxide (DMSO) to generate 256 µg/mL solutions. 200 µL of tricyclic peptide 20, and controls were added to the first column of the 96 well plates, and a twofold serial dilution was performed with the addition of 100 µL of bacterial culture media to the other wells. […] Bacterial solution (100 µL) was added to all the wells and incubated statically at 37 °C overnight. The minimum concentration at which bacterial growth was not visible to eyes were reported as MICs and experiments were performed in triplicate.

Data set [2] deals with Klebsiella pneumoniae (ATCC BAA 1705). Kind of data set: microbe, parasite or virus in culture. It is filed as cell-based. As to the method: as §1
The next data set relates to MRSA (LAC Clone). As to the kind of experiment: microbe, parasite or virus in culture. Type of data set: cell-based, Methicillin-resistant Staphylococcus aureus. The method, then: as §1
A further data set has as its system E. coli (ATCC 25922). As to the kind of experiment: microbe, parasite or virus in culture. It is filed as cell-based, Escherichia coli. As to the method: as §1
The test system of data set [3] is MRSA, Klebsiella pneumoniae, Pseudomonas aeruginosa, and E. coli. It is filed as cell-based. To be noted: range over the four strains, microbroth dilution. The method, then: as §1
Background: In broth dilution the organism is exposed to a series of concentrations in liquid medium.

In another data set the test system is MDA-MB-231 cells. It is filed as cell-based, Human. As to the method: Human breast cancer (MDA-MB-231) cell line was grown on 75 cm^2 cell culture flasks with Dulbecco’s modified eagle’s medium (DMEM) medium, supplemented with 10% fetal bovine serum (FBS), and 1% penicillin-streptomycin solution (10,000 units of penicillin and 10 mg of streptomycin in 0.9% NaCl) in a humidified atmosphere of 5% CO2, 95% air at 37 °C. CellTiter 96® Aqueous (Promega, Madison, WI, USA) one solution cell proliferation assay (MTS) was utilized to evaluate MDA-MB-231 cell viability. Cells were seeded into 96-well plate (10^4 cells/100 μL) in complete media and incubated overnight at 37 °C with 5% CO2. Different concentrations (0−300 μM) of the peptide solution (10 μL) were added to wells to make the final concentrations of the peptide (0−30 μM). The cells were incubated again (37 °C, 5% CO2) for 24 h, then MTS reagent (20 μL) was added to each well followed by incubation for 2 h under the same condition. The absorbance of the resulting solution was evaluated at 490 nm using a microplate reader to detect the live cells. Cells without peptide were considered as a control. DMSO (30% v/v) was used as a positive control. The compound was used in aqueous solution. All the tests were performed in triplicate.

Turning to `C[C@@H](O)[C@H]1C(=O)N2C(C(=O)O)=C(S[C@@H]3CN[C@H](C(=O)N(C)C)C3)[C@H](C)[C@H]12` [Meropenem], the MIC in data set [1] (Pseudomonas aeruginosa, ATCC27883, microbroth dilution, incubated overnight at 37 °C, growth not visible to eyes, performed in triplicate, read-out: MIC) worked out at 1 µg/mL (≈ 2.61 µM); in data set [2] (Klebsiella pneumoniae, BAA1705, microbroth dilution, incubated overnight at 37 °C, growth not visible to eyes, performed in triplicate, read-out: MIC), 32 µg/mL (≈ 83.4 µM); with MRSA (LAC Clone) (Staphylococcus aureus, MRSA, microbroth dilution, incubated overnight at 37 °C, growth not visible to eyes, performed in triplicate, read-out: MIC), 4 µg/mL (≈ 10.4 µM); with E. coli (ATCC 25922) (Escherichia coli, ATCC25922, microbroth dilution, incubated overnight at 37 °C, growth not visible to eyes, performed in triplicate, read-out: MIC), 8 µg/mL (≈ 20.9 µM).

Turning to `N=C(N)NCCC[C@@H]1NC(=O)[C@H](Cc2c[nH]c3ccccc23)NC(=O)[C@H](CCCNC(=N)N)NC(=O)[C@H](Cc2c[nH]c3ccccc23)NC(=O)[C@H](CCCCNC(=O)CCC(=O)NCCCC[C@@H]2NC(=O)[C@H](CCCNC(=N)N)NC(=O)[C@H](Cc3c[nH]c4ccccc34)NC(=O)[C@H](CCCNC(=N)N)NC(=O)[C@H](Cc3c[nH]c4ccccc34)NC(=O)[C@H](CCCNC(=N)N)NC(=O)[C@H](Cc3c[nH]c4ccccc34)NC(=O)[C@H](CCCNC(=N)N)NC(=O)[C@H](Cc3c[nH]c4ccccc34)NC2=O)NC(=O)[C@H](CCCNC(=N)N)NC(=O)[C@H](Cc2c[nH]c3ccccc23)NC(=O)[C@H](CCCNC(=N)N)NC(=O)[C@H](Cc2c[nH]c3ccccc23)NC(=O)[C@H](CCCCNC(=O)CCC(=O)NCCCC[C@@H]2NC(=O)[C@H](CCCNC(=N)N)NC(=O)[C@H](Cc3c[nH]c4ccccc34)NC(=O)[C@H](CCCNC(=N)N)NC(=O)[C@H](Cc3c[nH]c4ccccc34)NC(=O)[C@H](CCCNC(=N)N)NC(=O)[C@H](Cc3c[nH]c4ccccc34)NC(=O)[C@H](CCCNC(=N)N)NC(=O)[C@H](Cc3c[nH]c4ccccc34)NC2=O)NC1=O` [Tricyclic peptide 20] (I: cyclo(KWRWRKWRWR) / II: cyclo(KWRWRWRWR) / III: cyclo(KWRWRWRWR); linker I:1-III:1, I:6-II:1 via Suc), the MIC is reported as 128 µg/mL (≈ 26.7 µM) in data set [1] (ATCC 27883), 128 µg/mL (≈ 26.7 µM) in data set [2] (ATCC BAA 1705), 64 µg/mL (≈ 13.4 µM) against MRSA (LAC Clone) (LAC Clone) and 64 µg/mL (≈ 13.4 µM) against E. coli (ATCC 25922) (ATCC 25922). Also, in data set [3], the “MIC (range over MRSA, K. pneumoniae, P. aeruginosa, E. coli)” value lay in the range of 64 to 128 µg/mL. In addition, the cell viability – broadly, a read-out of living cells in per cent, often relative to untreated cells – with MDA-MB-231 cells (25 µM) is reported as “more than 97%”; in the data set with MDA-MB-231 cells (30 µM) it was 92%.

Turning to `N=C(N)NCCC[C@@H]1NC(=O)[C@H](CCCNC(=N)N)NC(=O)[C@H](CCCNC(=N)N)NC(=O)[C@H](Cc2c[nH]c3ccccc23)NC(=O)[C@H](Cc2c[nH]c3ccccc23)NC(=O)[C@H](Cc2c[nH]c3ccccc23)NC(=O)[C@H](Cc2c[nH]c3ccccc23)NC(=O)[C@H](CCCNC(=N)N)NC1=O` [c[R4W4]] (cyclo(RRRRWWWW)), the MIC amounted to 64 µg/mL (≈ 46.7 µM) in data set [1] (ATCC 27883), 32 µg/mL (≈ 23.4 µM) in data set [2] (ATCC BAA 1705), 4 µg/mL (≈ 2.92 µM) in the data set with MRSA (LAC Clone) (LAC Clone) and 16 µg/mL (≈ 11.7 µM) against E. coli (ATCC 25922) (ATCC 25922).
